The values that follow come from PubChem BioAssay (NCI).

SMILES strings stand for the structures.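 Protocol summary: plate cells (96-well), add compound at 5 concentrations, incubate 48 h, interpolate endpoints linearly. Here, GI50 denotes the concentration required for 50% inhibition of growth. Definition used: TGI = concentration required for complete inhibition of growth.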

The first experiment relates to SR leukemia. In words: DTP human tumour cell line panel, 48 h.
Usually GI50 stands for the concentration at which growth is held to half of that of the control. The term TGI denotes the concentration giving total growth inhibition. Consider `COC(C(=O)[O][Ge]([CH3])([CH3])[CH3])c1ccccc1` (centres undefined), for which the GI50 was more than 100 µM and the TGI was more than 100 µM.
For the compound `COc1ccc(-c2ccc(/C=N/n3c(COc4ccc(Cl)cc4Cl)nn(CN4CCOCC4)c3=S)o2)c([N+](=O)[O-])c1`, the GI50 is 27.7 µM and the total growth inhibition concentration (TGI) was 68.4 µM.

The test system of the next experiment is SK-MEL-28 melanoma. In words: DTP human tumour cell line panel, 48 h.
Turning to `COc1ccc(-c2nn3c(-c4cc(F)c(Cl)cc4Cl)nnc3s2)cc1`, the GI50 was 25.8 µM and the TGI is more than 100 µM.
Take `COc1ccc2nc(-c3cccs3)cc(C(O)CN3CCSCC3)c2c1` (centres undefined): the TGI came out at 77.4 µM.
Consider `O=C(CN1CCOCC1)Nc1nc(-c2ccc(Cl)cc2)cs1`, for which the TGI was 74.8 µM.
In the case of `COc1cc(C(=O)C/C(CCCC(=O)Nc2ccccc2[N+](=O)[O-])=N/NC(=O)c2cc3ccccc3cc2O)ccc1O`, the TGI was more than 100 µM.
The compound `CN(C)CCCNC(CC#N)CCC#N` (centres undefined) returned a TGI of more than 10 µM.
With `CN(C)C(=O)OC(Cn1cncn1)c1ccc(Cl)cc1Cl` (centres undefined), the TGI was more than 100 µM.
For `CN(C)CCNc1c2c(c(NCCN(C)C)c3[nH]ccc13)C(=O)c1ccccc1C2=O`, the GI50 is 3.1 µM and the TGI came out at 9.5 µM.
Take `CCOC(=O)COc1ccccc1/C=C1\CCC(CN(C)C)C1=O` (centres undefined): the TGI is 7.21 µM.
For the compound `CC1=Nc2ccccc2S/C1=C(/C)NNC(=O)C(N)=O`, the TGI was more than 100 µM.
`Nn1c(NNC(=O)C(=O)Nc2cc(Cl)c(Cl)cc2Cl)n[nH]c1=S` had a TGI of more than 100 µM.
`Cc1[nH]ccc2c1[nH]c1cc(=O)ccc12` displayed a TGI of more than 100 µM.
As to `NCCOCCOCCNc1nc(Cc2ccccc2)nc(NCCCN2CCCC2=O)n1`, the GI50 was more than 100 µM and the TGI is more than 100 µM.
Turning to `NC1C[C@H](n2cc(/C=C/Br)c(=O)[nH]c2=O)C[C@@H]1CO` (some centres undefined), the TGI is more than 100 µM.
For `Oc1cccc2ccc(N/N=C/c3cc(CN4CCCCC4)c(O)c4ncccc34)nc12`, the GI50 is 0.362 µM and the TGI was 15.9 µM.
With `O=C1CC(c2ccc(O)cc2)C2(O1)C(=O)OC(C(O)CO)C2O` (centres undefined), the TGI was more than 100 µM.
`CC1=C(C)C(=O)c2c(cc3ccccn23)C1=O`: the TGI stood at 34 µM.
As to `COc1ccc(-c2n/c(=C\c3c(O)[nH]c4ccc(OC)cc34)cc3c2=Nc2ccccc2-3)cc1`, the GI50 is 1.9 µM and the TGI worked out at 3.32 µM.
Consider `CC1SC2=NC3=C(c4ccccc4C3=O)C(c3ccc(F)cc3)N2C1=O` (centres undefined), for which the TGI was more than 100 µM.
For `COC(C(=O)[O][Ge]([CH3])([CH3])[CH3])c1ccccc1` (centres undefined), the GI50 was more than 100 µM and the TGI was more than 100 µM.
As to `CCCCC(CC)CN=C(N)NC(N)=NCCCCCCN=C(N)NC(N)=NCC(CC)CCCC` (centres undefined), the GI50 is 2.26 µM and the total growth inhibition concentration (TGI) was found to be 5.03 µM.
Regarding `CC1C=C(OC(=O)c2ccccc2)C(=O)C(n2cc(F)c(=O)[nH]c2=O)O1` (centres undefined), the TGI was more than 100 µM.
For `Nc1ccccc1C#C/C=C\C#Cc1cccs1`, the GI50 is 24.6 µM and the TGI was more than 67.5 µM.
As for `COc1ccc(-c2ccc(/C=N/n3c(COc4ccc(Cl)cc4Cl)nn(CN4CCOCC4)c3=S)o2)c([N+](=O)[O-])c1`, the GI50 was 27.7 µM and the TGI was 86.8 µM.
`CCN(CC)c1ccc(C(=O)c2ccccc2C(=O)O)c(O)c1`: the TGI is more than 100 µM.
`COc1ccc(OC)c(NC(=O)C2=C(C)NC(C)=C(C(=O)Nc3cc(OC)ccc3OC)C2c2ccccc2)c1`: the TGI was more than 100 µM.

The next experiment concerns NCI-H23 lung. In words: DTP human tumour cell line panel, 48 h.
Consider `COc1ccc(-c2nn3c(-c4cc(F)c(Cl)cc4Cl)nnc3s2)cc1`, for which the GI50 was 29.9 µM and the TGI is more than 100 µM.
`COc1ccc2nc(-c3cccs3)cc(C(O)CN3CCSCC3)c2c1` (centres undefined) gave a TGI of 55.4 µM.
`O=C(CN1CCOCC1)Nc1nc(-c2ccc(Cl)cc2)cs1`: the TGI is 40.1 µM.
As for `COc1cc(C(=O)C/C(CCCC(=O)Nc2ccccc2[N+](=O)[O-])=N/NC(=O)c2cc3ccccc3cc2O)ccc1O`, the total growth inhibition concentration (TGI) is more than 100 µM.
Compound `CN(C)CCCNC(CC#N)CCC#N` (centres undefined) came in with a TGI of more than 10 µM.
On the same count and under the same terms, then `CN(C)C(=O)OC(Cn1cncn1)c1ccc(Cl)cc1Cl` (centres undefined), with more than 100 µM.
Regarding `CN(C)CCNc1c2c(c(NCCN(C)C)c3[nH]ccc13)C(=O)c1ccccc1C2=O`, the GI50 is 1.82 µM.
For the compound `CCOC(=O)COc1ccccc1/C=C1\CCC(CN(C)C)C1=O` (centres undefined), the TGI was found to be 19.3 µM.
Consider `CC1=Nc2ccccc2S/C1=C(/C)NNC(=O)C(N)=O`, for which the TGI is more than 100 µM.
Take `Nn1c(NNC(=O)C(=O)Nc2cc(Cl)c(Cl)cc2Cl)n[nH]c1=S`: the TGI is more than 100 µM.
The compound `Cc1[nH]ccc2c1[nH]c1cc(=O)ccc12` came in with a TGI of more than 100 µM.
Turning to `NCCOCCOCCNc1nc(Cc2ccccc2)nc(NCCCN2CCCC2=O)n1`, the GI50 is more than 100 µM and the total growth inhibition concentration (TGI) is more than 100 µM.
In the case of `NC1C[C@H](n2cc(/C=C/Br)c(=O)[nH]c2=O)C[C@@H]1CO` (some centres undefined), the TGI is more than 100 µM.
On to `Oc1cccc2ccc(N/N=C/c3cc(CN4CCCCC4)c(O)c4ncccc34)nc12`, for which the 50% growth inhibitory concentration (GI50) was 0.0485 µM and the TGI stood at 1.45 µM.
The compound `O=C1CC(c2ccc(O)cc2)C2(O1)C(=O)OC(C(O)CO)C2O` (centres undefined) came in with a TGI of more than 100 µM.
As to `CC1=C(C)C(=O)c2c(cc3ccccn23)C1=O`, the TGI turned out to be 23.3 µM.
Consider `COc1ccc(-c2n/c(=C\c3c(O)[nH]c4ccc(OC)cc34)cc3c2=Nc2ccccc2-3)cc1`, for which the GI50 was 1.89 µM and the total growth inhibition concentration (TGI) came out at 3.97 µM.
In turn, `CC1SC2=NC3=C(c4ccccc4C3=O)C(c3ccc(F)cc3)N2C1=O` (centres undefined) displayed a TGI of more than 100 µM.
Turning to `COC(C(=O)[O][Ge]([CH3])([CH3])[CH3])c1ccccc1` (centres undefined), the GI50 was more than 100 µM and the TGI was more than 100 µM.
In turn, `CC1C=C(OC(=O)c2ccccc2)C(=O)C(n2cc(F)c(=O)[nH]c2=O)O1` (centres undefined) displayed a TGI of more than 100 µM.
Take `Nc1ccccc1C#C/C=C\C#Cc1cccs1`: the GI50 was 14.3 µM and the TGI amounted to 41.2 µM.
As for `COc1ccc(-c2ccc(/C=N/n3c(COc4ccc(Cl)cc4Cl)nn(CN4CCOCC4)c3=S)o2)c([N+](=O)[O-])c1`, the GI50 is 22.5 µM and the TGI was determined as 66.7 µM.
`CCN(CC)c1ccc(C(=O)c2ccccc2C(=O)O)c(O)c1`: the TGI was more than 100 µM.
As for `COc1ccc(OC)c(NC(=O)C2=C(C)NC(C)=C(C(=O)Nc3cc(OC)ccc3OC)C2c2ccccc2)c1`, the TGI is more than 100 µM.
